Legend:
[1] = system: transgenic soybean plants, Glycine Max HPPD, event SDS-10298; assay: Greenhouse testing of transgenic soybean plants, Glycine Max HPPD; type: in vivo; settings: soybean SDS-10298, 5 days after herbicide treatment, average of 8 T1
Source text: (§1) Various methods for the production of stably transformed plants are well known in the art. Coumarone-derivative herbicide tolerant soybean (Glycine max) or corn (Zea mays) plants can be produced by a method described by Olhoft et al. (US patent 2009/0049567). Briefly, HPPD or HST encoding polynucleotides are cloned into a binary vector using standard cloning techniques as described by Sambrook et al. (Molecular cloning (2001) Cold Spring Harbor Laboratory Press). The final vector construct contains an HPPD or HST encoding sequence flanked by a promoter sequence (e.g. the ubiquitin promoter (PcUbi) sequence) and a terminator sequence (e.g. the nopaline synthase terminator (NOS) sequence) and a resistance marker gene cassette (e.g. AHAS) (FIG. 2). Optionally, the HPPD or HST gene can provide the means of selection. Agrobacterium-mediated transformation is used to introduce the DNA into soybean's axillary meristem cells at the primary node of seedling explants. After inoculation and co-cultivation with Agrobacteria, the explants are transferred to shoot induction medium without selection for one week. The explants are subsequently transferred to shoot induction medium with 1-3 μM imazapyr (Arsenal) for 3 weeks to select for transformed cells. Explants with healthy callus/shoot pads at the primary node are then transferred to shoot elongation medium containing 1-3 μM imazapyr until a shoot elongates or the explant dies. After regeneration, transformants are transplanted to soil in small pots, placed in growth chambers (16 hr day/8 hr night; 25° C. day/23° C. night; 65% relative humidity; 130-150 mE m−2 s−1) and subsequently tested for the presence of the T-DNA via Taqman analysis. After a few weeks, healthy, transgenic positive, single copy events are transplanted to larger pots and allowed to grow in the growth chamber. Transformation of corn plants is done by a method described by McElver and Singh (WO 2008/124495). Plant transformation vector constructs containing HPPD or HST sequences are introduced into maize immature embryos via Agrobacterium-mediated transformation. Transformed cells are selected in selection media supplemented with 0.5-1.5 μM imazethapyr for 3-4 weeks. Transgenic plantlets are regenerated on plant regeneration media and rooted afterwards. Transgenic plantlets are subjected to TaqMan analysis for the presence of the transgene before being transplanted to potting mixture and grown to maturity in greenhouse. Arabidopsis thaliana is transformed with HPPD or HST sequences by floral dip method as described by McElver and Singh (WO 2008/124495). Transgenic Arabidopsis plants are subjected to Tag Man analysis for analysis of the number of integration loci. Transformation of Oryza sativa (rice) are done by protoplast transformation as described by Peng et al. (U.S. Pat. No. 6,653,529)
(§2) Transgenic plants expressing heterologous HPPD or HST enzymes are tested for tolerance against coumarone-derivative herbicides in greenhouse experiments.
(§3) For post emergence treatment, the test plants are first grown to a height of 3 to 15 cm, depending on the plant habit, and only then treated with the herbicides. For this purpose, the test plants are either sown directly and grown in the same containers, or they are first grown separately and transplanted into the test containers a few days prior to treatment.
(§4) Depending on the species, the plants are kept at 10-25° C. or 20-35° C. The test period extends over 3 weeks. During this time, the plants are tended and their response to the individual treatments is evaluated. […] Tolerance to coumarone-derivative herbicides can also be assessed in Arabidopsis. In this case transgenic Arabidopsis thaliana plants are assayed for improved tolerance to coumarone-derivative herbicides in 48-well plates. Seeds are surface sterilized by stirring for 5 min in ethanol+water (70+30 by volume), rinsing one time with ethanol+water (70+30 by volume) and two times with a sterile, deionized water. […]

[2] = system: corn plants, wild type (transgene none); assay: Greenhouse testing of corn plants, wild type; type: in vivo, Zea mays; settings: 5 days after herbicide treatment
Source text: as §1, §2, §3, §4

Row | SMILES | Injury evaluation, scale of 1-100, bleaching phenotype ([1]; 6.25 g/ha) | Injury evaluation, scale of 1-100, bleaching phenotype ([1]; 25 g/ha) | Injury evaluation, scale of 1-100, bleaching phenotype ([1]; 100 g/ha) | Injury evaluation, scale of 1-100, bleaching phenotype ([2]; 6.25 g/ha) | Injury evaluation, scale of 1-100, bleaching phenotype ([2]; 25 g/ha) | Injury evaluation, scale of 1-100, bleaching phenotype ([2]; 100 g/ha) | Injury evaluation, scale of 1-100, bleaching phenotype ([1]; 2.5 g/ha) | Injury evaluation, scale of 1-100, bleaching phenotype ([1]; 10 g/ha) | Injury evaluation, scale of 1-100, bleaching phenotype ([1]; 40 g/ha) | Injury evaluation, scale of 1-100, bleaching phenotype ([2]; 2.5 g/ha) | Injury evaluation, scale of 1-100, bleaching phenotype ([2]; 10 g/ha) | Injury evaluation, scale of 1-100, bleaching phenotype ([2]; 40 g/ha)
1 | Cc1c(C(=O)c2cnn(C)c2O)ccc(S(C)(=O)=O)c1C1=NOCC1 [Topramezone, reference compound] | 7 | 18 | 28 | 0 | 0 | 0 | – | – | – | – | – | –
2 | CC1(C)c2cccnc2C(O)=C(c2ccc(Cl)nc2Cl)S1(=O)=O [Inhibitor 2, 7-(2,6-dichloro-3-pyridyl)-5,5-dimethyl-6,6-dioxo-thiopyrano[4,3-b]pyridin-8-ol] | – | – | – | – | – | – | 4 | 5 | 17 | 20 | 45 | 33
